According to paper PMC4879574, “Identification of Leishmania donovani Topoisomerase 1 inhibitors via intuitive scaffold hopping and bioisosteric modification of known Top 1 inhibitors” (Scientific Reports, 2016):
Where “and” joins values, the source holds several entries; their conditions need not be identical. Equal entries are not always repeated. Where two headings read alike, the source gives them in different places.

How the values were obtained:
[1] = target: Leishmania donovani Topoisomerase 1 (LdTop1) (Leishmania donovani, UniProt A0A3Q8IHS4+Q8WQM6); experiment: Plasmid DNA relaxation assay, LdTop1 (simultaneous incubation); assay type: biochemical
Method: To investigate the inhibitory effect of our library compounds on the DNA relaxation activity of the recombinant Human and Leishmania topoisomerase 1 (Table 2), assays were performed involving supercoiled plasmid DNA, the enzymes (HTop1 and LdTop1) and our molecules. The enzymes were purified by the standard literature procedure.
(§1) All the experiments were conducted thrice and representative data from once set of them are expressed as mean ± SD.
(§2) The type I DNA topoisomerase are assayed by decreased mobility of the relaxed isomers of supercoiled pBS (SK^+) [pBlue-script (SK^+)] DNA in agarose gel. The relaxation assay was carried out as described previously with LdTop1B and HTop I, diluted in the relaxation buffer (25 mM Tris–HCl, pH 7.5, 5% glycerol, 0.5 mM DTT, 10 mM MgCl2, 50 mM KCl, […] and […] BSA) and supercoiled plasmid pBS (SK^+) DNA (85–95% were negatively supercoiled, with remainder being nicked circles)[9][28][29]. The reconstituted enzyme LdTop1B was assayed at 50 mM KCl concentration as described before. For all kinetic studies, the reaction mixtures containing the buffer and DNA were heated to 37 °C before addition of the enzymes. The reactions were rapidly quenched using stop solution and kept on ice. The gels were stained with ethidium bromide (EtBr) ([…]) and the amount of supercoiled monomer DNA band fluorescence were quantified by integration using Gel Doc 2000 under UV illumination (Bio-Rad Quantity One Software), as described previously.
Cells harvested from 1 litre of culture were separately lysed by lysozyme/sonication, and the proteins were purified through Ni-NTA (Ni^2+-nitriloacetate-agarose column (Qiagen, Hilden, Germany) followed by a phospho-cellulose column (P11 cellulose; Whatman, Maidstone Kent, UK) as described previously. Finally, the purified proteins LdTOP1L and LdTOP1S were stored at −70 °C. The concentrations of each protein were quantified by using Bradford Reagent (PIERCE, Thermo Fisher Scientific Inc., Rockford, USA). Purified LdTOP1L was mixed with purified LdTOP1S at a molar ratio of 1:1 to a total protein concentration of 0.5 mg/ml in reconstitution buffer [50 mM potassium phosphate, pH 7.5, 0.5 mM DTT, 1 mM EDTA, 0.1 mM PMSF and 10% (v/v) glycerol]. The mixture was dialyzed overnight at 4 °C and dialyzed fractions were used for plasmid relaxation activity.

LdTop1 = LdTop1 (Leishmania donovani, UniProt A0A3Q8IHS4+Q8WQM6); experiment: Preincubation DNA relaxation inhibition assay, LdTop1; assay type: biochemical
Method: To interrogate whether compound 4 interacts with the enzyme, it was preincubated with LdTop1 at different concentration for 5 minutes at 37 °C before the addition of substrate DNA (Fig. 9a).
as §1, §2

[2] = test system: L. donovani AG83 promastigotes; experiment: MTT assay on extracellular promastigotes; assay type: cell-based; conditions: Leishmania donovani, 12 h, read-out: Anti-promastigote activity IC50
Method: Next, compound 4 was screened against extracellular promastigotes.
L. donovani AG83 promastigotes (3.0 × 10^6 cells/ml) are incubated with different concentrations of drugs/compounds under study (1, 2, 5, 10 and 20 μM) for 12 h, following which the survival percentage is estimated by MTT assay. Yellow MTT (3-(4,5-dimethylthiazol- 2-yl)-2,5-diphenyltetrazolium bromide, a tetrazole) is reduced to purple formazan in the mitochondria of living cells. The formazan is then solubilized, and the concentration is determined by optical density at 570 nm. Metabolically active cells convert MTT to formazan, thereby generating a quantitative measure of viability and cytotoxicity. Percentage of viable promastigotes in each treatment groups are determined with respect to untreated control cells.

[3] = Cytotoxicity on mammalian COS7 cell lines; assay type: cell-based; conditions: African green monkey, COS7 cells
COS7 cells = experiment: Cytotoxicity on mammalian COS7 cell lines; assay type: cell-based

Chain of LdTop1 (Q8WQM6 entry or part of it): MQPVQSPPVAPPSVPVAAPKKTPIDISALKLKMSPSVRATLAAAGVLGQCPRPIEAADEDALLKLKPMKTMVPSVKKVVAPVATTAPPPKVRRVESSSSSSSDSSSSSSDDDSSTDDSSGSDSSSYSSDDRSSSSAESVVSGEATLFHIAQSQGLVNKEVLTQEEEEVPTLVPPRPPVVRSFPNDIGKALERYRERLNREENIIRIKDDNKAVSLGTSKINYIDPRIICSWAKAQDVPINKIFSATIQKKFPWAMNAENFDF
Chain of LdTop1 (A0A3Q8IHS4 entry or part of it): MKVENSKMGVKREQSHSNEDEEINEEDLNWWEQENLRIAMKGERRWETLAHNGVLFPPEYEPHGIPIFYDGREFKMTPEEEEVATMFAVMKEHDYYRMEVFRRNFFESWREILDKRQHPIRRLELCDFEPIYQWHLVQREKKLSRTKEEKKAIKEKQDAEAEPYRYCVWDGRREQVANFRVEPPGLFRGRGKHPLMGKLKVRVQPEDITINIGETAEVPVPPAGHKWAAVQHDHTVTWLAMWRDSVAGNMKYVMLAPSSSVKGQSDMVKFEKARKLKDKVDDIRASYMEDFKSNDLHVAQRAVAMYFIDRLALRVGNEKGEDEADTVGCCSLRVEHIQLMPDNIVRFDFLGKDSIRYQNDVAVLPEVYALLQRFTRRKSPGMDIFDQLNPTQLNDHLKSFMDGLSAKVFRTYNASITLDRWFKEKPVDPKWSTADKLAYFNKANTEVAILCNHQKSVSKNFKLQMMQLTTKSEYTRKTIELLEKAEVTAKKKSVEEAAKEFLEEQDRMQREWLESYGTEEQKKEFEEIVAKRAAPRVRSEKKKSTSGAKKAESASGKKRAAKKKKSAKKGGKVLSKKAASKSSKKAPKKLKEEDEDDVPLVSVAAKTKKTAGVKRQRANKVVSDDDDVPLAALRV
Chain of Leishmania donovani Topoisomerase 1 (LdTop1) (Q8WQM6 entry or part of it): as the sequence (Q8WQM6 entry or part of it) above
Chain of Leishmania donovani Topoisomerase 1 (LdTop1) (A0A3Q8IHS4 entry or part of it): as the sequence (A0A3Q8IHS4 entry or part of it) above

SMILES: Cc1cc2c(c(=O)[nH]1)C(=O)O/C2=C\c1ccc(O)c(O)c1 [Compound 4]
- inhibition at 12.5 µM ([1]; LdTop1 relaxation, 12.5 uM, read-out: % inhibition, mean data): 97.2%
- inhibition at 25 µM ([1]; LdTop1 relaxation, 25 uM, read-out: % inhibition, mean data): 99.9%
- % inhibition (CPT 100%), data 2 ([1]; LdTop1 relaxation, 50 uM): 100.001%
- inhibition at 50 µM ([1]; LdTop1 relaxation, 50 uM, read-out: % inhibition, mean data): 100%
- % inhibition (CPT 100%), data 2 ([1]; LdTop1 relaxation, 100 uM): 100.003%
- inhibition at 100 µM ([1]; LdTop1 relaxation, 100 uM, read-out: % inhibition, mean data): 100%
- EC50 ([1]; incubated simultaneously with LdTop1 and supercoiled DNA, read-out: EC50, simultaneous assay): 3.77 ± 0.27 µM
- LdTop1 inhibitory activity ([1]; plasmid DNA relaxation): considerable activity
- EC50 ([1]; plasmid DNA relaxation, averages of three experiments, read-out: LDTop1 inhibition (EC50)): 4 µM and 3.51 µM
- inhibition at 12.5 µM ([1]; read-out: % inhibition (CPT 100%), data 1, LdTop1 relaxation, 12.5 uM): 97.3%
- inhibition at 25 µM ([1]; read-out: % inhibition (CPT 100%), data 1, LdTop1 relaxation, 25 uM): 99.9%
- inhibition at 50 µM ([1]; read-out: % inhibition (CPT 100%), data 1, LdTop1 relaxation, 50 uM): 100%
- inhibition at 100 µM ([1]; read-out: % inhibition (CPT 100%), data 1, LdTop1 relaxation, 100 uM): 100%
- inhibition at 0.62 µM ([1]; read-out: % inhibition (CPT 100%), data 1, simultaneous, 0.62 uM): 7.36%
- inhibition at 1.25 µM ([1]; read-out: % inhibition (CPT 100%), data 1, simultaneous, 1.25 uM): 23.5%
- inhibition at 2.5 µM ([1]; read-out: % inhibition (CPT 100%), data 1, simultaneous, 2.5 uM): 42.8%
- inhibition at 5 µM ([1]; read-out: % inhibition (CPT 100%), data 1, simultaneous, 5 uM): 60.1%
- inhibition at 10 µM ([1]; read-out: % inhibition (CPT 100%), data 1, simultaneous, 10 uM): 88.3%
- inhibition at 20 µM ([1]; read-out: % inhibition (CPT 100%), data 1, simultaneous, 20 uM): 91.6%
- inhibition at 12.5 µM ([1]; read-out: % inhibition (CPT 100%), data 2, LdTop1 relaxation, 12.5 uM): 97.1%
- inhibition at 25 µM ([1]; read-out: % inhibition (CPT 100%), data 2, LdTop1 relaxation, 25 uM): 99.9%
- inhibition at 50 µM ([1]; read-out: % inhibition (CPT 100%), data 2, LdTop1 relaxation, 50 uM): 100%
- inhibition at 100 µM ([1]; read-out: % inhibition (CPT 100%), data 2, LdTop1 relaxation, 100 uM): 100%
- inhibition at 0.62 µM ([1]; read-out: % inhibition (CPT 100%), data 2, simultaneous, 0.62 uM): 8.88%
- inhibition at 1.25 µM ([1]; read-out: % inhibition (CPT 100%), data 2, simultaneous, 1.25 uM): 22.5%
- inhibition at 2.5 µM ([1]; read-out: % inhibition (CPT 100%), data 2, simultaneous, 2.5 uM): 43.7%
- inhibition at 5 µM ([1]; read-out: % inhibition (CPT 100%), data 2, simultaneous, 5 uM): 60.9%
- inhibition at 10 µM ([1]; read-out: % inhibition (CPT 100%), data 2, simultaneous, 10 uM): 86.5%
- inhibition at 20 µM ([1]; read-out: % inhibition (CPT 100%), data 2, simultaneous, 20 uM): 92.9%
- inhibition at 0.62 µM ([1]; simultaneous, 0.62 uM, read-out: % inhibition, mean data): 8.12%
- inhibition at 1.25 µM ([1]; simultaneous, 1.25 uM, read-out: % inhibition, mean data): 23%
- inhibition at 2.5 µM ([1]; simultaneous, 2.5 uM, read-out: % inhibition, mean data): 43.3%
- inhibition at 5 µM ([1]; simultaneous, 5 uM, read-out: % inhibition, mean data): 60.5%
- inhibition at 10 µM ([1]; simultaneous, 10 uM, read-out: % inhibition, mean data): 87.4%
- % inhibition, mean data ([1]; simultaneous, 20 uM): 92.2648%
- inhibition at 20 µM ([1]; simultaneous, 20 uM, read-out: % inhibition, mean data): ~92%
- EC50 ([1]; supplement sheet, simultaneous, concentrations in uM, read-out: EC50 of 4-Sim): 3.77 µM
- inhibition at 0.62 µM (LdTop1; pre-incubation, 0.62 uM, read-out: % inhibition, mean data): 27.4%
- inhibition at 1.25 µM (LdTop1; pre-incubation, 1.25 uM, read-out: % inhibition, mean data): 49%
- inhibition at 2.5 µM (LdTop1; pre-incubation, 2.5 uM, read-out: % inhibition, mean data): 65.9%
- inhibition at 5 µM (LdTop1; pre-incubation, 5 uM, read-out: % inhibition, mean data): 91.2%
- inhibition at 10 µM (LdTop1; pre-incubation, 10 uM, read-out: % inhibition, mean data): 97.4%
- inhibition at 20 µM (LdTop1; pre-incubation, 20 uM, read-out: % inhibition, mean data): ~100%
- EC50 (LdTop1; preincubated with LdTop1 5 min 37 °C before DNA, read-out: EC50, preincubation assay): 1.72 ± 0.23 µM
- inhibition at 0.62 µM (LdTop1; read-out: % inhibition (CPT 100%), data 1, pre-incubation, 0.62 uM): 27.1%
- inhibition at 1.25 µM (LdTop1; read-out: % inhibition (CPT 100%), data 1, pre-incubation, 1.25 uM): 48.2%
- inhibition at 2.5 µM (LdTop1; read-out: % inhibition (CPT 100%), data 1, pre-incubation, 2.5 uM): 67.4%
- inhibition at 5 µM (LdTop1; read-out: % inhibition (CPT 100%), data 1, pre-incubation, 5 uM): 91.4%
- inhibition at 10 µM (LdTop1; read-out: % inhibition (CPT 100%), data 1, pre-incubation, 10 uM): 97.2%
- inhibition at 20 µM (LdTop1; read-out: % inhibition (CPT 100%), data 1, pre-incubation, 20 uM): 100%
- inhibition at 0.62 µM (LdTop1; read-out: % inhibition (CPT 100%), data 2, pre-incubation, 0.62 uM): 27.7%
- inhibition at 1.25 µM (LdTop1; read-out: % inhibition (CPT 100%), data 2, pre-incubation, 1.25 uM): 49.8%
- inhibition at 2.5 µM (LdTop1; read-out: % inhibition (CPT 100%), data 2, pre-incubation, 2.5 uM): 64.5%
- inhibition at 5 µM (LdTop1; read-out: % inhibition (CPT 100%), data 2, pre-incubation, 5 uM): 91%
- inhibition at 10 µM (LdTop1; read-out: % inhibition (CPT 100%), data 2, pre-incubation, 10 uM): 97.5%
- inhibition at 20 µM (LdTop1; read-out: % inhibition (CPT 100%), data 2, pre-incubation, 20 uM): 100%
- EC50 (LdTop1; supplement sheet, pre-incubation, concentrations in uM, read-out: EC50 of 4-PI): 1.72 µM
- IC50 [2]: 4.21 ± 0.21 µM
- CC50 [3]: 390.6 ± 3.15 µM
- Selectivity Index (SI) (COS7 cells; CC50 against COS7/IC50 against promastigote): ~100
- Cytotoxicity against COS7 (COS7 cells; COS7): no cytotoxicity
